The target in experiment [1] is T1, HA1 adenosine receptor (Homo sapiens, UniProt P30542).
T1 sequence (P30542 1-326): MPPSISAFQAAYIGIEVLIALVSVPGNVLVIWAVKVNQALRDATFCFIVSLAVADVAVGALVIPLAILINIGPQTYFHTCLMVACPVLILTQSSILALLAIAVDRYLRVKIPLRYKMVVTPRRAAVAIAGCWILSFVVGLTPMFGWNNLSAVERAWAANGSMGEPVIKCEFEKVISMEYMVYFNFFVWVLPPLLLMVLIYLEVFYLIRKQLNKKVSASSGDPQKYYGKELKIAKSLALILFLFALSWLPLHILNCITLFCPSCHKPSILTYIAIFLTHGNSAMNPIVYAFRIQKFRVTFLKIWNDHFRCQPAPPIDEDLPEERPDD
Description: Human adenosine A1 receptor affinity (Ki hA1). The experiment is classed as binding. Conditions: affinity to human adenosine A1 receptor.

For experiment [2], the target named is T2, human adenosine A2A receptor (Homo sapiens, UniProt P29274).
T2 construct: expressed in transfected cells; host or cells: CHO cells, Semliki Forest virus expression system; membrane preparation
T2 sequence (P29274 whole entry): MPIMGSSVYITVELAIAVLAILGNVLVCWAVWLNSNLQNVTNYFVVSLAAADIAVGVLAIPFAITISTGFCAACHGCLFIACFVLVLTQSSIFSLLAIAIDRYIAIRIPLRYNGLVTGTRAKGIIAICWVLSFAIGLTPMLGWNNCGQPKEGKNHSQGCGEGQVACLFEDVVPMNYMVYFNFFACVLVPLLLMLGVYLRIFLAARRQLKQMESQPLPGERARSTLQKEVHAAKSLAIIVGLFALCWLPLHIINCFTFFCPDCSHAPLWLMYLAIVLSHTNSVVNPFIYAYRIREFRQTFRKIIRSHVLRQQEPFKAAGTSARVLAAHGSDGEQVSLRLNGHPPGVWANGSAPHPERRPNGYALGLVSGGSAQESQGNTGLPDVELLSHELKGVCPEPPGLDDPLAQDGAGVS
The experiment is described as follows: Human adenosine A2A receptor [3H]-SCH-58261 binding assay. Conditions: for Ki: affinity to human adenosine A2A receptor, read-out: Ki HA2A; for selectivity (A1/A2a): calculated ratio of the affinity to the HA1 receptor to the HA2a receptor.

Results on 27 molecules are retold here after patent US6506772B1, “Substituted [1,2,4]triazolo[1,5a]pyridine derivatives with activity as adenosine receptor ligands” (Hoffmann-La Roche Inc., priority 2000, dated 2003).

Structures are written as SMILES.

By Ki is commonly meant a measure of affinity in units of concentration, obtained from inhibition or displacement.

For the molecule `Cc1ccc(-c2nc3cc(C(=O)NCc4ccccc4Br)cc(N)n3n2)s1` [Example 200, 5-Amino-2-(5-methyl-thiophen-2-yl)-[1,2,4]triazolo[1,5-a]pyridine-7-carboxylic acid 2-bromo-benzylamide], in experiment [1], the affinity, expressed as Ki, was 37.9 nM. Further, in experiment [2], the Ki was 22 nM and the “selectivity (A1/A2a)” value is recorded as 1.7.

`COc1ccccc1CNC(=O)c1cc(N)n2nc(-c3ccc(C)s3)nc2c1` [Example 201, 5-Amino-2-(5-methyl-thiophen-2-yl)-[1,2,4]triazolo[1,5-a]pyridine-7-carboxylic acid 2-methoxy-benzylamide]: the inhibition constant Ki in experiment [1] was found to be 33 nM. Further, in experiment [2], the inhibition constant (Ki) was 31.3 nM and the “selectivity (A1/A2a)” value is listed as 1.1.

`COc1cc(CNC(=O)c2cc(N)n3nc(-c4ccc(C)s4)nc3c2)cc(OC)c1OC` [Example 202, 5-Amino-2-(5-methyl-thiophen-2-yl)-[1,2,4]triazolo[1,5-a]pyridine-7-carboxylic acid 3,4,5-trimethoxy-benzylamide]: in experiment [1], the inhibition constant Ki came to 678 nM. Besides, in experiment [2], the inhibition constant (Ki) is 310 nM and the “selectivity (A1/A2a)” value is recorded as 2.2.

The molecule `Cc1ccc(-c2nc3cc(C(=O)NC4CCc5ccccc54)cc(N)n3n2)s1` (stereo not drawn) [Example 203, 5-Amino-2-(5-methyl-thiophen-2-yl)-[1,2,4]triazolo[1,5-a]pyridine-7-carboxylic acid indan-1-ylamide] showed an inhibitory constant (Ki) in experiment [1] of 66.2 nM. Further, in experiment [2], the Ki came to 60 nM and the “selectivity (A1/A2a)” value was 1.1.

Regarding `CN(Cc1ccccc1)C(=O)c1cc(N)n2nc(-c3nccs3)nc2c1` [Example 204, 5-Amino-2-thiazol-2-yl-[1,2,4]triazolo[1,5-a]pyridine-7-carboxylic acid benzyl-methyl-amide], the Ki in experiment [1] worked out at 325 nM; in experiment [2] it was 41.7 nM. In experiment [2], the “selectivity (A1/A2a)” value is reported as 7.8.

In turn, `Nc1cc(C(=O)NCc2ccc(Cl)cc2)cc2nc(-c3nccs3)nn12` [Example 205, 5-Amino-2-thiazol-2-yl-[1,2,4]triazolo[1,5-a]pyridine-7-carboxylic acid 4-chloro-benzylamide] registered an inhibition constant Ki in experiment [1] of 294 nM. Moreover, in experiment [2], the inhibition constant (Ki) turned out to be 157 nM and the “selectivity (A1/A2a)” value is reported as 1.9.

In turn, `Nc1cc(C(=O)NCc2ccc(F)cc2)cc2nc(-c3nccs3)nn12` [Example 206, 5-Amino-2-thiazol-2-yl-[1,2,4]triazolo[1,5-a]pyridine-7-carboxylic acid 4-fluoro-benzylamide] returned an inhibitory constant (Ki) in experiment [1] of 657 nM. In addition, in experiment [2], the inhibition constant Ki amounted to 126 nM and the “selectivity (A1/A2a)” value is listed as 5.2.

`COc1ccc(CNC(=O)c2cc(N)n3nc(-c4nccs4)nc3c2)cc1` [Example 207, 5-Amino-2-thiazol-2-yl-[1,2,4]triazolo[1,5-a]pyridine-7-carboxylic acid 4-methoxy-benzylamide] yielded a Ki in experiment [1] of 533 nM. For the same molecule, in experiment [2], the inhibition constant (Ki) is 187 nM and the “selectivity (A1/A2a)” value was 2.8.

On to `COc1ccc(CNC(=O)c2cc(N)n3nc(-c4nccs4)nc3c2)cc1OC` [Example 208, 5-Amino-2-thiazol-2-yl-[1,2,4]triazolo[1,5-a]pyridine-7-carboxylic acid 3,4-dimethoxy-benzylamide], for which the Ki was 1860 nM in experiment [1] and 316 nM in experiment [2]. In addition, the “selectivity (A1/A2a)” value in experiment [2] is listed as 5.9.

As to `Cc1ccc(-c2nc3cc(C(=O)NCc4ccccc4)cc(N)n3n2)o1` [Example 210, 5-Amino-2-(5-methyl-furan-2-yl)-[1,2,4]triazolo[1,5-a]pyridine-7-carboxylic acid benzylamide], in experiment [1], the Ki amounted to 299 nM. Besides, in experiment [2], the Ki is 48.6 nM and the “selectivity (A1/A2a)” value is 6.1.

Regarding `Cc1ccc(-c2nc3cc(C(=O)NC(C)c4ccccc4)cc(N)n3n2)o1` (stereo not drawn) [Example 211, 5-Amino-2-(5-methyl-furan-2-yl)-[1,2,4]triazolo[1,5-a]pyridine-7-carboxylic acid (1-phenyl-ethyl)-amide], affinity in experiment [1] was put at a Ki of 298 nM. Further, in experiment [2], the Ki was 57.3 nM and the “selectivity (A1/A2a)” value is recorded as 5.2.

As to `Cc1ccc(-c2nc3cc(C(=O)NCc4ccc(Cl)cc4)cc(N)n3n2)o1` [Example 212, 5-Amino-2-(5-methyl-furan-2-yl)-[1,2,4]triazolo[1,5-a]pyridine-7-carboxylic acid 4-chloro-benzylamide], affinity in experiment [1] was put at a Ki of 634 nM. Further, in experiment [2], the Ki was 190 nM and the “selectivity (A1/A2a)” value was 3.3.

In experiment [1], `Cc1ccc(-c2nc3cc(C(=O)NCc4ccc(F)cc4)cc(N)n3n2)o1` [Example 213, 5-Amino-2-(5-methyl-furan-2-yl)-[1,2,4]triazolo[1,5-a]pyridine-7-carboxylic acid 4-fluoro-benzylamide] displayed a Ki of 343 nM. In experiment [2], the Ki was determined as 73.2 nM and the “selectivity (A1/A2a)” value is given as 4.7.

With `COc1ccccc1CNC(=O)c1cc(N)n2nc(-c3ccc(C)o3)nc2c1` [Example 214, 5-Amino-2-(5-methyl-furan-2-yl)-[1,2,4]triazolo[1,5-a]pyridine-7-carboxylic acid 2-methoxy-benzylamide], the figures for the Ki in experiment [1] and in experiment [2] were 111 nM and 14.6 nM, respectively. The “selectivity (A1/A2a)” value in experiment [2] is reported as 7.6.

In experiment [1], `COc1ccc(CNC(=O)c2cc(N)n3nc(-c4ccc(C)o4)nc3c2)cc1` [Example 215, 5-Amino-2-(5-methyl-furan-2-yl)-[1,2,4]triazolo[1,5-a]pyridine-7-carboxylic acid 4-methoxy-benzylamide] had a Ki of 1540 nM. In addition, in experiment [2], the inhibition constant (Ki) worked out at 295 nM and the “selectivity (A1/A2a)” value is 5.2.

On to `Nc1cc(C(=O)NCc2ccccc2)cc2nc(-c3ccccc3)nn12` [Example 216, 5-Amino-2-phenyl-[1,2,4]triazolo[1,5-a]pyridine-7-carboxylic acid benzylamide], for which, in experiment [1], affinity was put at a Ki of 149 nM. For the same molecule, in experiment [2], the inhibition constant Ki was 64.1 nM and the “selectivity (A1/A2a)” value is 2.3.

Regarding `CC(NC(=O)c1cc(N)n2nc(-c3ccccc3)nc2c1)c1ccccc1` (stereo not drawn) [Example 217, 5-Amino-2-phenyl-[1,2,4]triazolo[1,5-a]pyridine-7-carboxylic acid (1-phenyl-ethyl)-amide], the Ki worked out at 72.6 nM in experiment [1] and 84.6 nM in experiment [2]. The “selectivity (A1/A2a)” value in experiment [2] was 0.9.

For `Nc1cc(C(=O)NCc2ccccc2Cl)cc2nc(-c3ccccc3)nn12` [Example 218, 5-Amino-2-phenyl-[1,2,4]triazolo[1,5-a]pyridine-7-carboxylic acid 2-chloro-benzylamide], the Ki in experiment [1] was determined as 116 nM; in experiment [2] it was 47.2 nM. Moreover, the “selectivity (A1/A2a)” value in experiment [2] was 2.5.

In experiment [1], `Nc1cc(C(=O)NCc2ccccc2Br)cc2nc(-c3ccccc3)nn12` [Example 219, 5-Amino-2-phenyl-[1,2,4]triazolo[1,5-a]pyridine-7-carboxylic acid 2-bromo-benzylamide] returned a Ki of 133 nM. For the same molecule, in experiment [2], the Ki came to 30 nM and the “selectivity (A1/A2a)” value is 4.4.

In the case of `COc1ccccc1CNC(=O)c1cc(N)n2nc(-c3ccccc3)nc2c1` [Example 220, 5-Amino-2-phenyl-[1,2,4]triazolo[1,5-a]pyridine-7-carboxylic acid 2-methoxy-benzylamide], the Ki in experiment [1] is 48.3 nM. In experiment [2], the Ki came out at 29.2 nM and the “selectivity (A1/A2a)” value is 1.7.

On to `CCN(C(=O)c1cc(N)n2nc(-c3ccoc3)nc2c1)C(C)C` [Example 221, 5-Amino-2-furan-3-yl-[1,2,4]triazolo[1,5-a]pyridine-7-carboxylic acid ethyl-isopropyl-amide], for which the affinity in experiment [1] corresponds to a Ki of 2260 nM. Besides, in experiment [2], the inhibition constant Ki was determined as 308 nM and the “selectivity (A1/A2a)” value is 7.3.

`CN(C(=O)c1cc(N)n2nc(-c3ccoc3)nc2c1)C1CCCCC1` [Example 222, 5-Amino-2-furan-3-yl-[1,2,4]triazolo[1,5-a]pyridine-7-carboxylic acid cyclohexyl-methyl-amide] gave an inhibition constant (Ki) in experiment [1] of 2050 nM. Further, in experiment [2], the Ki stood at 241 nM and the “selectivity (A1/A2a)” value is reported as 8.5.

In turn, `Nc1cc(C(=O)NC2CCc3ccccc32)cc2nc(-c3ccoc3)nn12` (stereo not drawn) [Example 223, 5-Amino-2-furan-3-yl-[1,2,4]triazolo[1,5-a]pyridine-7-carboxylic acid indan-1-ylamide] came in with a Ki in experiment [1] of 414 nM. For the same molecule, in experiment [2], the Ki amounted to 44.1 nM and the “selectivity (A1/A2a)” value is given as 9.4.

Turning to `Nc1cc(C(=O)NCc2ccccc2)cc2nc(-c3ccoc3)nn12` [Example 224, 5-Amino-2-furan-3-yl-[1,2,4]triazolo[1,5-a]pyridine-7-carboxylic acid benzylamide], the Ki in experiment [1] stood at 216 nM. Further, in experiment [2], the inhibition constant Ki worked out at 47.4 nM and the “selectivity (A1/A2a)” value is 4.5.

In the case of `CC(NC(=O)c1cc(N)n2nc(-c3ccoc3)nc2c1)c1ccccc1` (stereo not drawn) [Example 225, 5-Amino-2-furan-3-yl-[1,2,4]triazolo[1,5-a]pyridine-7-carboxylic acid (1-phenyl-ethyl)-amide], the inhibition constant (Ki) in experiment [1] was found to be 125 nM; in experiment [2] it was 103 nM. Moreover, the “selectivity (A1/A2a)” value in experiment [2] is recorded as 1.2.

Turning to `CN(Cc1ccccc1)C(=O)c1cc(N)n2nc(-c3ccoc3)nc2c1` [Example 226, 5-Amino-2-furan-3-yl-[1,2,4]triazolo[1,5-a]pyridine-7-carboxylic acid benzyl-methyl-amide], the affinity in experiment [1] corresponds to a Ki of 1010 nM. In addition, in experiment [2], the Ki was determined as 121 nM and the “selectivity (A1/A2a)” value is 8.4.

Turning to `Nc1cc(C(=O)NCc2ccc(F)cc2)cc2nc(-c3ccoc3)nn12` [Example 227, 5-Amino-2-furan-3-yl-[1,2,4]triazolo[1,5-a]pyridine-7-carboxylic acid 4-fluoro-benzylamide], the Ki in experiment [1] amounted to 736 nM; in experiment [2], 192 nM. Moreover, in experiment [2], the “selectivity (A1/A2a)” value is 3.8.
